From patent publication US20240124422A1, “MUTANT PI3K-ALPHA INHIBITORS AND THEIR USE AS PHARMACEUTICALS” (Prelude Therapeutics Incorporated, priority 2022, published 2024) come the findings set out here.

Bounds are passed on as bounds.

Broadly, the IC50 is the concentration needed to halve the response being measured.

The first assay relates to phosphorylation of AKT on Ser473 as a readout of the PI3K pathway in T-47D (heterozygous PIK3CA H1047R) cells. In words: PI3K pathway activation assay, pAKT Ser473 HTRF, T-47D cells. It is filed as cell-based. Conditions: Homo sapiens, T47D, 2 h, two hours of treatment. As for the experimental part: The inhibitory activity of compounds was evaluated by measuring phosphorylation of AKT on Ser473 as a readout of the PI3K pathway using HTRF (CisBio catalog number: 64AKSPE). These studies were conducted in the T-47D (heterozygous PIK3CA H1047R) and SKBR3 (PIK3CA WT) cell lines. Cells were maintained in a 37° C. incubator at 5% CO2 in the following media: T-47D: RPMI 1640, ATCC© Modification (Gibco, A10491-01) supplemented with 10% v/v FBS (Gibco, 26140-079), 1% penicillin streptomycin (Gibco, 15140-122), and 7.4 ug/mL insulin (MilliporeSigma, I9278); SKBR3: McCoy's 5a (Modified) Medium (Gibco, 16600-082) supplemented with 10% v/v FBS (Gibco, 26140-079). Cells were seeded in 384-well plates at a density of 4,000 cells/well. Compounds dissolved in DMSO were added using a digital dispense (D300E, Tecan) 10-point serial dilution. After two hours of treatment, cells were lysed for thirty minutes and then incubated with detection reagents per HTRF kit material and manufacturer's instructions. Fluorescence signal was measured with a multimode plate reader (Envision 2105, Perkin Elmer). Fluorescent signal was normalized to background and DMSO controls to obtain percent inhibition/activity for each compound.
(In TR-FRET formats the signal depends on donor and acceptor labels being close together.)
Turning to `Cc1cc(C(C)Nc2ccccc2C(=O)O)c2nc(N3CCC4(CC3)CN(C(=O)OC(C)(C)C)C4)n(C)c(=O)c2c1` (centres unmarked) [Example 108, 2-[1-[3,6-dimethyl-2-[2-[(2-methylpropan-2-yl)oxycarbonyl]-2,7-diazaspiro[3.5]nonan-7-yl]-4-oxoquinazolin-8-yl]ethylamino]benzoic acid], the IC50 was 500 to 10000 nM.
On the same count and under the same terms, with `Cc1cc(C(C)Nc2ccccc2C(=O)O)c2nc(N3CCC(NC(=O)OC(C)(C)C)C3)n(C)c(=O)c2c1` (centres unmarked) [Example 110, 2-[1-[3,6-dimethyl-2-[3-[(2-methylpropan-2-yl)oxycarbonylamino]pyrrolidin-1-yl]-4-oxoquinazolin-8-yl]ethylamino]benzoic acid] the figure was 500 to 10000 nM; with `Cc1cc(C(C)Nc2cccc(F)c2C(=O)O)c2nc(N3CC4CC4C3)n(C)c(=O)c2c1` (centres unmarked) [Example 121, 2-[1-[2-(3-Azabicyclo[3.1.0]hexan-3-yl)-3,6-dimethyl-4-oxoquinazolin-8-yl]ethylamino]-6-fluorobenzoic acid], less than 500 nM; with `Cc1cc(C(C)Nc2ccccc2C(=O)O)c2nc(N3CC4CC4C3)n(C(F)F)c(=O)c2c1` (centres unmarked) [Example 102, 2-((1-(2-(3-Azabicyclo[3.1.0]hexan-3-yl)-3-(difluoromethyl)-6-methyl-4-oxo-3,4-dihydroquinazolin-8-yl)ethyl)amino)benzoic acid], 500 to 10000 nM.
On the same count and under the same terms, in the case of `Cc1cc(C(C)Nc2ccc(Cl)cc2C(=O)O)c2nc(N3Cc4ccccc4C3)n(C)c(=O)c2c1` (centres unmarked) [Example 33, 5-chloro-2-((1-(2-(isoindolin-2-yl)-3,6-dimethyl-4-oxo-3,4-dihydroquinazolin-8-yl)ethyl)amino)benzoic acid] it was 500 to 10000 nM; in that of `Cc1cc(C(C)Nc2ccccc2C(=O)O)c2nc(O)n(C)c(=O)c2c1` (centres unmarked) [Example 42, 2-((1-(2-hydroxy-3,6-dimethyl-4-oxo-3,4-dihydroquinazolin-8-yl)ethyl)amino) benzoic acid], 500 to 10000 nM; in that of `Cc1cc(C(C)Nc2ccccc2C(=O)O)c2nc(N3CCC4(CC3)CC(NC(=O)OC(C)(C)C)C4)n(C)c(=O)c2c1` (centres unmarked) [Example 107, 2-[1-[3,6-dimethyl-2-[2-[(2-methylpropan-2-yl)oxycarbonylamino]-7-azaspiro[3.5]nonan-7-yl]-4-oxoquinazolin-8-yl]ethylamino]benzoic acid], 500 to 10000 nM.
Molecule `COc1ccc(NC(C)c2cc(C)cc3c(=O)n(C)c(N4CC5CC5C4)nc23)c(C(=O)O)c1` (centres unmarked) [Example 122, 2-[1-[2-(3-Azabicyclo[3.1.0]hexan-3-yl)-3,6-dimethyl-4-oxoquinazolin-8-yl]ethylamino]-5-methoxybenzoic acid] had an IC50 of 500 to 10000 nM.
In the case of `CC(Nc1ccccc1C(=O)O)c1cc(C(F)(F)F)cc2c(=O)n(C)c(N3CC4CC4C3)nc12` (centres unmarked) [Example 16, 2-((1-(2-(3-azabicyclo[3.1.0]hexan-3-yl)-3-methyl-4-oxo-6-(trifluoromethyl)-3,4-dihydroquinazolin-8-yl)ethyl)amino)benzoic acid], the IC50 fell in the range of 500 to 10000 nM.
Turning to `CC(Nc1ccccc1C(=O)O)c1cccc2c(=O)n(C)c(N3Cc4ccccc4C3)nc12` (centres unmarked) [Example 72, 2-((1-(2-(Isoindolin-2-yl)-3-methyl-4-oxo-3,4-dihydroquinazolin-8-yl)ethyl)amino)benzoic acid], the IC50 fell in the range of 500 to 10000 nM.
As for `CONC(=O)c1ccccc1NC(C)c1cc(C)cc2c(=O)n(C)c(N3Cc4ccccc4C3)nc12` (centres unmarked) [Example 5, 2-((1-(2-(isoindolin-2-yl)-3,6-dimethyl-4-oxo-3,4-dihydroquinazolin-8-yl)ethyl)amino)-N-methoxybenzamide], the IC50 lay in the range of 500 to 10000 nM.
Same read-out and setting: with `Cc1cc(C(C)Nc2ccccc2C(=O)O)c2nc(-c3ccn[nH]3)n(C)c(=O)c2c1` (centres unmarked) [Example 25, 2-((1-(3,6-dimethyl-4-oxo-2-(1H-pyrazol-5-yl)-3,4-dihydroquinazolin-8-yl)ethyl)amino)benzoic acid] the figure was 500 to 10000 nM; with `Cc1cc(C(C)Nc2ccccc2C(=O)O)c2nc(N3CC4CC4C3)n(CC(F)(F)F)c(=O)c2c1` (centres unmarked) [Example 103, 2-((1-(2-(3-Azabicyclo[3.1.0]hexan-3-yl)-6-methyl-4-oxo-3-(2,2,2-trifluoroethyl)-3,4-dihydroquinazolin-8-yl)ethyl)amino)benzoic acid], 500 to 10000 nM.
Still for that read-out and setting: in the case of `CC(Nc1ccccc1C(=O)O)c1cc(Br)cc2c(=O)n(C)c(N3CCC(F)(F)CC3)nc12` (centres unmarked) [Example 74, 2-((1-(6-Bromo-2-(4,4-difluoropiperidin-1-yl)-3-methyl-4-oxo-3,4-dihydroquinazolin-8-yl)ethyl)amino)benzoic acid] it was less than 500 nM; in that of `Cc1cc(C(C)Nc2ccccc2C(=O)O)c2nc(C3CCCN3S(=O)(=O)F)n(C)c(=O)c2c1` (centres unmarked) [Example 73, 2-[1-[2-(1-Fluorosulfonylpyrrolidin-2-yl)-3,6-dimethyl-4-oxoquinazolin-8-yl]ethylamino]benzoic acid], 500 to 10000 nM; in that of `Cc1cc(C(Nc2ccccc2C(=O)O)C(F)F)c2nc(N3CC4CC4C3)n(C)c(=O)c2c1` (centres unmarked) [Example 96, 2-((1-(2-(3-azabicyclo[3.1.0]hexan-3-yl)-3,6-dimethyl-4-oxo-3,4-dihydro-quinazolin-8-yl)-2,2-difluoroethyl)amino)benzoic acid], 500 to 10000 nM.
On to `Cc1cc(C(C)Nc2ccccc2C(=O)O)c2nc(N3CCN(C(=O)C45CC(F)(C4)C5)CC3)n(C)c(=O)c2c1` (centres unmarked) [Example 92, 2-((1-(2-(4-(3-Fluorobicyclo[1.1.1]pentane-1-carbonyl)piperazin-1-yl)-3,6-dimethyl-4-oxo-3,4-dihydroquinazolin-8-yl)ethyl)amino)benzoic acid], for which the IC50 was in the range of 500 to 10000 nM.
`COc1cc(C(C)Nc2ccccc2C(=O)O)c2nc(N3CC4CC4C3)n(C)c(=O)c2c1` (centres unmarked) [Example 77, 2-((1-(2-(3-azabicyclo[3.1.0]hexan-3-yl)-6-methoxy-3-methyl-4-oxo-3,4-dihydroquinazolin-8-yl)ethyl)amino)benzoic acid] displayed an IC50 of 500 to 10000 nM.
The same measure, in the same setting: with `CC(=O)N1C[C@H]2CN(c3nc4c(C(C)Nc5ccccc5C(=O)O)cc(C)cc4c(=O)n3C)C[C@@H]2C1` (stereo partly drawn) [Example 66, 2-((1-(2-((3aR,6aR)-5-Acetylhexahydropyrrolo[3,4-c]pyrrol-2(1H)-yl)-3,6-dimethyl-4-oxo-3,4-dihydroquinazolin-8-yl)ethyl)amino)benzoic acid] the figure was 500 to 10000 nM; with `CC(Nc1ccccc1C(=O)O)c1cc(C2CC2)cc2c(=O)n(C)c(N3CC4CC4C3)nc12` (centres unmarked) [Example 76, 2-((1-(2-(3-Azabicyclo[3.1.0]hexan-3-yl)-6-cyclopropyl-3-methyl-4-oxo-3,4-dihydroquinazolin-8-yl)ethyl)amino)benzoic acid], 500 to 10000 nM.

The assay is the same for the next values; noted with them: two hours of treatment, read-out: T47D pAKT IC50.
Take `Cc1cc(C(C)Nc2ccccc2C(=O)O)c2nc(N3C[C@@H]4C(NC(=O)OC5CC5)[C@@H]4C3)n(C)c(=O)c2c1` (stereo partly drawn) [Example 63, 2-((1-(2-((1R,5S,6s)-6-((cyclopropoxycarbonyl)amino)-3-azabicyclo[3.1.0]hexan-3-yl)-3,6-dimethyl-4-oxo-3,4-dihydroquinazolin-8-yl)ethyl)amino)benzoic acid]: the IC50 was in the range of 500 to 10000 nM.
For the molecule `Cc1cc(C(C)Nc2ccccc2C(=O)O)c2nc(N3CC4CCC3C4)n(C)c(=O)c2c1` (single isomer, unassigned) [Example 101, 2-((1-(2-(2-Azabicyclo[2.2.1]heptan-2-yl)-3,6-dimethyl-4-oxo-3,4-dihydro-quinazolin-8-yl)ethyl)amino)benzoic acid], the IC50 lay within 500 to 10000 nM.
Still for that read-out and setting: in the case of `Cc1cc(C(C)Nc2ccccc2C(=O)O)c2nc(N3C[C@@H]4C(C(=O)N(C)c5cccnc5)[C@@H]4C3)n(C)c(=O)c2c1` (stereo partly drawn) [Example 88, 2-((1-(3,6-Dimethyl-2-((1R,5S,6R)-6-(methyl(pyridin-3-yl)carbamoyl)-3-azabicyclo[3.1.0]hexan-3-yl)-4-oxo-3,4-dihydroquinazolin-8-yl)ethyl)amino)benzoic acid] it was 500 to 10000 nM; in that of `Cc1cc(C(C)Nc2ccccc2C(=O)O)c2nc(N3C[C@@H]4C(NC(=O)OCC(F)(F)F)[C@@H]4C3)n(C)c(=O)c2c1` (stereo partly drawn) [Example 60, 2-((1-(3,6-dimethyl-4-oxo-2-((1R,5S,6s)-6-(((2,2,2-trifluoroethoxy)carbonyl)amino)-3-azabicyclo[3.1.0]hexan-3-yl)-3,4-dihydroquinazolin-8-yl)ethyl)amino)benzoic acid], 500 to 10000 nM.
As to `Cc1cc(C(C)Nc2ccccc2C(=O)O)c2nc(N3CCC(c4ccccc4)C3)n(C)c(=O)c2c1` (single isomer, unassigned) [Example 53, 2-[1-[3,6-dimethyl-4-oxo-2-(3-phenylpyrrolidin-1-yl)quinazolin-8-yl]ethylamino]benzoic acid], the IC50 lay within 500 to 10000 nM.
Regarding `COCCN(C)C(=O)[C@H]1[C@@H]2CN(c3nc4c(C(C)Nc5ccccc5C(=O)O)cc(C)cc4c(=O)n3C)C[C@@H]21` (stereo partly drawn) [Example 87, 2-((1-(2-((1R,5S,6R)-6-((2-Methoxyethyl)(methyl)carbamoyl)-3-azabicyclo[3.1.0]hexan-3-yl)-3,6-dimethyl-4-oxo-3,4-dihydroquinazolin-8-yl)ethyl)amino)benzoic acid], the IC50 was in the range of 500 to 10000 nM.
